Data on one compound can be found in patent US9855270B2, “Methods and compositions for modulating estrogen receptor mutants” (priority 2014, dated 2018).

The subject of the test is mutant ERα. The settings on record: 24 hr; estrogen-depleted medium containing 100 ng/ml Dox; absence of E2.

`CC/C(=C(\c1ccccc1)c1ccc(OCCN(C)C)cc1)c1ccccc1` [tamoxifen]: the “mutant ERα degradation” value was “not”.
